# Reference: US20090221624A1, “4-AMINOQUINOLINE COMPOUNDS FOR TREATING VIRUS-RELATED CONDITIONS” (priority 2005, published 2009)
# Read-outs that look alike come from different tables or passages of the source.
# Tests used:
# [1] = system: EBOV minigenome; assay: microbe, parasite or virus in culture; format: cell-based, Ebola virus; settings: for inhibition at 25 µM: 24 h, read-out: EBOV Inh; for EC50: read-out: EBOV EC50
# [2] = system: HCV replicon (Clone A cells, Huh7, subgenomic hepatits C virus RNA); assay: HCV Neo screening assay (HCV replicon, NPTII ELISA); format: cell-based, hepatitis C virus; settings: for EC50 / inhibition at 25 µM: Hepatitis C virus, Huh-7; for EC50: Secondary Data, HCV; for inhibition at 25 µM: primary screening, 25 μM final concentration, 24 hours, percent inhibition of viral replication, read-out: HCV Inh; for HCV TI: therapeutic index CC50/EC50, HCV
# [3] = system: RSV minigenome; assay: RSV minigenome-dependent β-galactosidase expression assay (RSV β-Gal); format: cell-based, respiratory syncytial virus; settings: for EC50: Secondary Data, RSV, read-out: RSV EC50; for inhibition at 25 µM: primary screening, 25 μM final concentration, 24 hours, percent inhibition of viral replication, read-out: RSV Inh; for RSV TI: therapeutic index CC50/EC50, RSV
# [4] = in vitro
# [5] = system: DNG (D2-hRuPac cells); assay: DNG antiviral activity, D2-hRuPac cells, Renilla luciferase; format: cell-based, Dengue fever virus; settings: Dengue virus, secondary screening
# [6] = system: WNV (WN-hRuPac cells); assay: WNV antiviral activity, WN-hRuPac cells, Renilla luciferase; format: cell-based, West Nile virus; settings: for EC50 / inhibition at 25 µM: West Nile virus; for EC50: Secondary Data, WNV, read-out: WNV EC50; for inhibition at 25 µM: primary screening, 25 μM final concentration, 24 hours, percent inhibition of viral replication, read-out: WNV Inh; for WNV TI: therapeutic index CC50/EC50, WNV
# [7] = system: SINV (SR19-F-luc cells); assay: SINV antiviral activity, SR19-F-luc cells, Firefly luciferase; format: cell-based; settings: Sindbis virus; for inhibition at 25 µM: primary screening, 25 μM final concentration, 24 hours, percent inhibition of viral replication, read-out: SINV Inh; for EC50: secondary screening, SR19-F-luc cells
# [8] = system: YFV (YF-hRuPac cells); assay: microbe, parasite or virus in culture; format: cell-based, yellow fever virus; settings: for inhibition at 25 µM / EC50: Yellow fever virus; for inhibition at 25 µM: 24 h, read-out: YFV Inh; for EC50: read-out: YFV EC50
# [9] = system: viable cells (intracellular ATP)
# [10] = human respiratory syncytial virus
SMILES,inhibition at 25 µM ([1]; Zaire ebolavirus) [%],EC50 ([1]; Zaire ebolavirus) [µM],EC50 [2] [µM],inhibition at 25 µM [2] [%],HCV TI [2],"EC50 [3, 10] [µM]","inhibition at 25 µM [3, 10] [%]",RSV TI [3],CC50 ([4]; DNG CC50) [µM],CC50 ([4]; EBOV CC50) [µM],CC50 ([4]; HCV CC50) [µM],CC50 ([4]; RSV CC50) [µM],CC50 ([4]; SINV CC50) [µM],CC50 ([4]; WNV CC50) [µM],EC50 [5] [µM],EC50 [6] [µM],WNV TI [6],EC50 [7] [µM],YFV TI [8],EC50 [8] [µM],further results
CCOC(=O)c1cnc2c(C)cc(C)cc2c1NCCCN(C)C [Compound 75],95.1,7.15,0.75,122,14.4,5.79,92.7,4.04,23.4,23.4,10.8,23.4,23.4,23.4,6.09,9,2.6,11,3.13,7.48,CC50 ([4]; YFV CC50): 23.4 µM; inhibition at 25 µM [6]: 79.2%; inhibition at 25 µM [7]: 83.8%; inhibition at 25 µM [8]: 69.1%
COc1ccc2nc(C)cc(Nc3ccc(I)cc3)c2c1 [Compound 76],93.9,19.8,11.3,152,1.9,18.2,75.9,1.95,35.5,35.5,21.5,35.5,35.5,35.5,13.5,50.4,0.7,2.55,3.98,8.92,CC50 ([4]; YFV CC50): 35.5 µM; inhibition at 25 µM [6]: 85.9%; inhibition at 25 µM [7]: 93.5%; inhibition at 25 µM [8]: 93.1%
COc1ccccc1Nc1cc(C)nc2c(C)c(C)cc(N)c12 [Compound 79],–,–,–,–,–,–,–,23.3,–,–,≥ 75,–,–,–,8.26,19,2.7,8.57,16.53,3.1,EBOV Inh [1]: 49.83%; EC50 [1]: 43.5 µM; CC50 [9]: 51.2 µM; EC50 [3]: 2.2 µM
